Assay results taken from patent publication US12538924B2, “Pesticidally active heterocyclic derivatives with sulfur containing substituents” (SYNGENTA CROP PROTECTION AG, priority 2019, dated 2026).

Assays:
Assay type in all cases: in vivo
[1] = test system: Diabrotica Balteata (Corn Root Worm); assay: Diabrotica balteata (Corn Root Worm), sprayed maize sprouts; conditions: 96 h, application rate of 200 ppm, L2 larvae on sprayed maize sprouts, 4 days after infestation, read-out: effect in at least one of the two categories (mortality or growth inhibition)
Method: Example B2: Diabrotica Balteata (Corn Root Worm)
Maize sprouts placed onto an agar layer in 24-well microtiter plates were treated with aqueous test solutions prepared from 10'000 ppm DMSO stock solutions by spraying. After drying, the plates were infested with L2 larvae (6 to 10 per well). The samples were assessed for mortality and growth inhibition in comparison to untreated samples 4 days after infestation.

[2] = test system: Euschistus heros (Neotropical Brown Stink Bug); assay: Euschistus heros (Neotropical Brown Stink Bug), sprayed soybean leaves; conditions: 120 h, application rate of 200 ppm, N2 nymphs on sprayed soybean leaves, 5 days after infestation, read-out: effect in at least one of the two categories (mortality or growth inhibition)
Method: Example B3: Euschistus heros (Neotropical Brown Stink Bug)
Soybean leaves on agar in 24-well microtiter plates were sprayed with aqueous test solutions prepared from 10'000 ppm DMSO stock solutions. After drying the leaves were infested with N2 nymphs. The samples were assessed for mortality and growth inhibition in comparison to untreated samples 5 days after infestation.

[3] = test system: Plutella xylostella (Diamond Back Moth); assay: Plutella xylostella (Diamond Back Moth), treated artificial diet; conditions: 192 h, application rate of 200 ppm, eggs on treated artificial diet, 8 days after infestation, read-out: effect in at least one of the two categories (mortality or growth inhibition)
Method: Example B5: Plutella xylostella (Diamond Back Moth)
24-well microtiter plates with artificial diet were treated with aqueous test solutions prepared from 10'000 ppm DMSO stock solutions by pipetting. After drying, Plutella eggs were pipetted through a plastic stencil onto a gel blotting paper and the plate was closed with it. The samples were assessed for mortality and growth inhibition in comparison to untreated samples 8 days after infestation.

[4] = test system: Myzus persicae (Green Peach Aphid); assay: Myzus persicae (Green Peach Aphid): Feeding/Contact Activity; conditions: foliar, 144 h, application rate of 200 ppm, aphid population of mixed ages on sprayed sunflower leaf discs, 6 days after infestation
Method: Example B6: Myzus persicae (Green Peach Aphid): Feeding/Contact Activity
Sunflower leaf discs were placed onto agar in a 24-well microtiter plate and sprayed with aqueous test solutions prepared from 10'000 ppm DMSO stock solutions. After drying, the leaf discs were infested with an aphid population of mixed ages. The samples were assessed for mortality 6 days after infestation.

[5] = test system: Myzus persicae (Green Peach Aphid); assay: Myzus persicae (Green Peach Aphid): Systemic Activity; conditions: 144 h, test rate of 24 ppm, roots of infested pea seedlings placed into test solutions, 6 days
Method: Example B7: Myzus persicae (Green Peach Aphid): Systemic Activity
Roots of pea seedlings infested with an aphid population of mixed ages were placed directly into aqueous test solutions prepared from 10'000 DMSO stock solutions. The samples were assessed for mortality 6 days after placing seedlings into test solutions.

[6] = test system: Spodoptera littoralis (Egyptian Cotton Leaf Worm); assay: Spodoptera littoralis (Egyptian Cotton Leaf Worm), sprayed cotton leaf discs; conditions: foliar, 72 h, application rate of 200 ppm, L1 larvae on sprayed cotton leaf discs, 3 days after infestation, read-out: control (mortality, anti-feeding effect or growth inhibition)
Method: Example B8: Spodoptera littoralis (Egyptian Cotton Leaf Worm)
Cotton leaf discs were placed onto agar in 24-well microtiter plates and sprayed with aqueous test solutions prepared from 10'000 ppm DMSO stock solutions. After drying the leaf discs were infested with five L1 larvae. The samples were assessed for mortality, anti-feeding effect, and growth inhibition in comparison to untreated samples 3 days after infestation. Control of Spodoptera littoralis by a test sample is given when at least one of the categories mortality, anti-feedant effect, and growth inhibition is higher than the untreated sample.

[7] = test system: Nilaparvata lugens (Brown Plant Hopper); assay: Nilaparvata lugens (Brown Plant Hopper): Larvicide, Systemic into Water; conditions: 168 h, test rate of 12.5 ppm, rice plants in nutritive solution, N3 nymphs, 7 days after infestation
Method: Example B12: Nilaparvata lugens (Brown Plant Hopper): Larvicide, Systemic into Water
Rice plants cultivated in a nutritive solution were treated with the diluted test solutions into nourishing cultivation system. 1 day after application plants were infested with ˜20 N3 nymphs. 7 days after infestation samples were assessed for mortality and growth regulation.

[8] = test system: Bemisia tabaci (Cotton White Fly); assay: Bemisia tabaci (Cotton White Fly): Feeding/Contact Activity; conditions: foliar, 144 h, application rate of 200 ppm, adult white flies on sprayed cotton leaf discs, 6 days after incubation
Method: Example B1: Bemisia tabaci (Cotton White Fly): Feeding/Contact Activity
Cotton leaf discs were placed on agar in 24-well microtiter plates and sprayed with aqueous test solutions prepared from 10'000 ppm DMSO stock solutions. After drying the leaf discs were infested with adult white flies. The samples were checked for mortality 6 days after incubation.

[9] = test system: Nilaparvata lugens (Brown Plant Hopper); assay: Nilaparvata lugens (Brown Plant Hopper): Larvicide, Feeding/Contact; conditions: 168 h, application rate of 50 ppm, N3 nymphs on sprayed rice plants, 7 days after the treatment
Method: Example B10: Nilaparvata lugens (Brown Plant Hopper): Larvicide, Feeding/Contact
Rice plants were treated with the diluted test solutions in a spray chamber. After drying plants were infested with ˜20 N3 nymphs. 7 days after the treatment samples were assessed for mortality and growth regulation.

[10] = test system: Nilaparvata lugens (Brown Plant Hopper); assay: Nilaparvata lugens (Brown Plant Hopper): Igr, Feeding/Contact; conditions: 360 h, application rate of 50 ppm, sprayed rice plants, N3 nymphs, assessed for effect on F1 generation 15 days after the treatment
Method: Example B11: Nilaparvata lugens (Brown Plant Hopper): Igr, Feeding/Contact
Rice plants were treated with the diluted test solutions in a spray chamber. After drying plants were infested with ˜20 N3 nymphs. 7 days after treatment adults were removed and 15 days after the treatment samples were assessed for effect on F1 generation.

CCS(=O)(=O)c1cccnc1N1Cc2cnc(C(F)(F)F)cc2C1=O [Compound P1, 2-(3-ethylsulfonyl-2-pyridyl)-6-(trifluoromethyl)-3H-pyrrolo[3,4-c]pyridin-1-one]
≥ 80%: percent effect (mortality or growth inhibition) at 200 ppm [1] | percent effect (mortality or growth inhibition) at 200 ppm [2] | percent effect (mortality or growth inhibition) at 200 ppm [3] | mortality at 200 ppm [4] | mortality at 24 ppm [5] | percent control (mortality, anti-feedant effect or growth inhibition) at 200 ppm [6] | mortality at 12.5 ppm [7]

CCS(=O)(=O)c1cc(C(C)(C)C#N)cnc1N1Cc2cnc(C(F)(F)F)cc2C1=O [Compound P2, 2-[5-ethylsulfonyl-6-[1-oxo-6-(trifluoromethyl)-3H-pyrrolo[3,4-c]pyridin-2-yl]-3-pyridyl]-2-methyl-propanenitrile]
≥ 80%: mortality at 200 ppm [8] | percent effect (mortality or growth inhibition) at 200 ppm [1] | percent effect (mortality or growth inhibition) at 200 ppm [2] | percent effect (mortality or growth inhibition) at 200 ppm [3] | mortality at 200 ppm [4] | mortality at 24 ppm [5] | percent control (mortality, anti-feedant effect or growth inhibition) at 200 ppm [6] | mortality at 50 ppm [9] | mortality at 50 ppm [10] | mortality at 12.5 ppm [7]

CCS(=O)(=O)c1ccc(NC)nc1N1Cc2cnc(C(F)(F)F)cc2C1=O [Compound P4, 2-[3-ethylsulfonyl-6-(methylamino)-2-pyridyl]-6-(trifluoromethyl)-3H-pyrrolo[3,4-c]pyridin-1-one]
≥ 80%: percent effect (mortality or growth inhibition) at 200 ppm [1] | percent effect (mortality or growth inhibition) at 200 ppm [2] | percent effect (mortality or growth inhibition) at 200 ppm [3] | mortality at 200 ppm [4] | mortality at 24 ppm [5] | percent control (mortality, anti-feedant effect or growth inhibition) at 200 ppm [6] | mortality at 50 ppm [9] | mortality at 50 ppm [10] | mortality at 12.5 ppm [7]

CCS(=O)(=O)c1ccc(-n2cncn2)nc1N1Cc2cnc(C(F)(F)F)cc2C1=O [Compound P5, 2-[3-ethylsulfonyl-6-(1,2,4-triazol-1-yl)-2-pyridyl]-6-(trifluoromethyl)-3H-pyrrolo[3,4-c]pyridin-1-one]
≥ 80%: mortality at 200 ppm [8] | percent effect (mortality or growth inhibition) at 200 ppm [1] | percent effect (mortality or growth inhibition) at 200 ppm [2] | percent effect (mortality or growth inhibition) at 200 ppm [3] | mortality at 200 ppm [4] | mortality at 24 ppm [5] | percent control (mortality, anti-feedant effect or growth inhibition) at 200 ppm [6] | mortality at 50 ppm [9] | mortality at 50 ppm [10] | mortality at 12.5 ppm [7]

CCS(=O)(=O)c1ccc(N(C)C(=O)NC)nc1N1Cc2cnc(C(F)(F)F)cc2C1=O [Compound P6, 1-[5-ethylsulfonyl-6-[1-oxo-6-(trifluoromethyl)-3H-pyrrolo[3,4-c]pyridin-2-yl]-2-pyridyl]-1,3-dimethyl-urea]
≥ 80%: mortality at 200 ppm [8] | percent effect (mortality or growth inhibition) at 200 ppm [1] | percent effect (mortality or growth inhibition) at 200 ppm [2] | percent effect (mortality or growth inhibition) at 200 ppm [3] | mortality at 200 ppm [4] | mortality at 24 ppm [5] | mortality at 50 ppm [9] | mortality at 12.5 ppm [7]

CCS(=O)(=O)c1cc(-n2ccc(C(F)(F)F)n2)cnc1N1Cc2cnc(C(F)(F)F)cc2C1=O [Compound P9, 2-[3-ethylsulfonyl-5-[3-(trifluoromethyl)pyrazol-1-yl]-2-pyridyl]-6-(trifluoromethyl)-3H-pyrrolo[3,4-c]pyridin-1-one]
≥ 80%: mortality at 200 ppm [8] | percent effect (mortality or growth inhibition) at 200 ppm [1] | percent effect (mortality or growth inhibition) at 200 ppm [2] | percent effect (mortality or growth inhibition) at 200 ppm [3] | mortality at 200 ppm [4] | percent control (mortality, anti-feedant effect or growth inhibition) at 200 ppm [6] | mortality at 50 ppm [10] | mortality at 12.5 ppm [7]

CCS(=O)(=O)c1cc(C(F)(F)F)cnc1N1Cc2cnc(C(F)(F)F)cc2C1=O [Compound P10, 2-[3-ethylsulfonyl-5-(trifluoromethyl)-2-pyridyl]-6-(trifluoromethyl)-3H-pyrrolo[3,4-c]pyridin-1-one]
≥ 80%: mortality at 200 ppm [8] | percent effect (mortality or growth inhibition) at 200 ppm [1] | percent effect (mortality or growth inhibition) at 200 ppm [2] | percent effect (mortality or growth inhibition) at 200 ppm [3] | mortality at 200 ppm [4] | mortality at 24 ppm [5] | percent control (mortality, anti-feedant effect or growth inhibition) at 200 ppm [6] | mortality at 50 ppm [9] | mortality at 50 ppm [10] | mortality at 12.5 ppm [7]

CCS(=O)(=O)c1cc(C2(C#N)CC2)cnc1N1Cc2ncc(C(F)(F)F)cc2C1=O [Compound P11, 1-[5-ethylsulfonyl-6-[5-oxo-3-(trifluoromethyl)-7H-pyrrolo[3,4-b]pyridin-6-yl]-3-pyridyl]cyclopropanecarbonitrile]
≥ 80%: mortality at 200 ppm [8] | percent effect (mortality or growth inhibition) at 200 ppm [1] | percent effect (mortality or growth inhibition) at 200 ppm [2] | percent effect (mortality or growth inhibition) at 200 ppm [3] | mortality at 200 ppm [4] | mortality at 24 ppm [5] | percent control (mortality, anti-feedant effect or growth inhibition) at 200 ppm [6] | mortality at 50 ppm [9] | mortality at 50 ppm [10] | mortality at 12.5 ppm [7]

CCS(=O)(=O)c1cc(Oc2ccccn2)cnc1N1Cc2cnc(C(F)(F)F)cc2C1=O [Compound P12, 2-[3-ethylsulfonyl-5-(2-pyridyloxy)-2-pyridyl]-6-(trifluoromethyl)-3H-pyrrolo[3,4-c]pyridin-1-one]
≥ 80%: percent effect (mortality or growth inhibition) at 200 ppm [1] | percent effect (mortality or growth inhibition) at 200 ppm [2] | percent effect (mortality or growth inhibition) at 200 ppm [3] | mortality at 200 ppm [4] | mortality at 24 ppm [5] | percent control (mortality, anti-feedant effect or growth inhibition) at 200 ppm [6] | mortality at 12.5 ppm [7]

CCS(=O)(=O)c1cc(-n2ccc(Cl)n2)cnc1N1Cc2cnc(C(F)(F)F)cc2C1=O [Compound P13, 2-[5-(3-chloropyrazol-1-yl)-3-ethylsulfonyl-2-pyridyl]-6-(trifluoromethyl)-3H-pyrrolo[3,4-c]pyridin-1-one]
≥ 80%: mortality at 200 ppm [8] | percent effect (mortality or growth inhibition) at 200 ppm [1] | percent effect (mortality or growth inhibition) at 200 ppm [2] | percent effect (mortality or growth inhibition) at 200 ppm [3] | mortality at 200 ppm [4] | percent control (mortality, anti-feedant effect or growth inhibition) at 200 ppm [6] | mortality at 12.5 ppm [7]

CCS(=O)(=O)c1ccc(N(C)C(=O)C2CC2)nc1N1Cc2cnc(C(F)(F)F)cc2C1=O [Compound P18, N-[5-ethylsulfonyl-6-[1-oxo-6-(trifluoromethyl)-3H-pyrrolo[3,4-c]pyriclin-2-yl]-2-pyridyl]-N-methyl-cyclopropanecarboxamide]
≥ 80%: mortality at 200 ppm [8] | percent effect (mortality or growth inhibition) at 200 ppm [1] | percent effect (mortality or growth inhibition) at 200 ppm [2] | percent effect (mortality or growth inhibition) at 200 ppm [3] | mortality at 200 ppm [4] | mortality at 24 ppm [5] | percent control (mortality, anti-feedant effect or growth inhibition) at 200 ppm [6] | mortality at 50 ppm [9] | mortality at 50 ppm [10] | mortality at 12.5 ppm [7]
